According to US20130231291A1, “FERMENTED SOYA BASED MIXTURE COMPRISING ISOFLAVONES- AGLICONES, EQUOL AND LUNASIL, PROCESS FOR THE PREPARATION AND USES THEREOF IN FOOD, MEDICAL AND COSMETIC FIELDS” (priority 2010, published 2013):

Assays:
Format in all cases: cell-based, human
Caco-2/TC7 cells [1] = experiment: TEER of Caco-2/TC7 cell layer; conditions: for TEER of cells stimulated with IFN-γ: IFN-γ 1000 U/ml, 24, 48 and 72 h, soya milk diluted at equol 10 μM
Method: The incubation has been carried out in the presence of γ-interpheron (IFN-γ) (1000 U/ml (-▪-); IFN-γ and soya milk, obtained from biological soya flour, not fermented (-Δ-) or fermented with the selected mixed starter, diluted at equol final concentration of 10 μM and sterile filtered. (-x-). DMEM culture medium has been used as negative control (-♦-). Data are the average of three triplicate experiments. Asterisk indicates meaningful differences (P<0.01) compared to negative control.
For TEER measurement Caco-2/TC7 cells have been inoculated (7.5×10^4 cell/ml) in a microplate container with 24 […] and a polyethylene filter (0.4 μm pore size). Before the treatment, the cells have been incubated for 21 days at 37° C. […] Integrity of cellular layer then has been determined by means of TEER measurements.
Under culture conditions of this study, Caco-2/TC7 cells develop morphological and functional characteristics of enterocytes, including tight intercellular junctions, integrity thereof being measured by TEER determination. Preliminarily, TEER has been determined in the presence of standard chemical compounds (10-100 μM), fermented OFS soya milk and diluted at equol concentration of 10 μM, or not fermented OFS soya milk. […] Treatments of Caco-2/TC7 cells with INF-γ (1000 U/ml) favoured a remarkable decrease (P<0.003) of TEER value (FIG. 6).

[2] = system: interleukin-8 (IL-8) from Caco-2/TC7 cells; experiment: Interleukin-8 release by ELISA after IL-1β stimulation; conditions: IL-1β 2 ng/ml for 24 h, then 24 h treatment at 10 μM (soya milk: equol 10 μM)
Method: DMEM culture medium containing DMSO (1%, v/v) or methanol (0.5%, v/v) has been used as negative control. Data are the average of three triplicate experiments. Asterisk indicates meaningful differences (P<0.01) compared to negative control.
For measurement of released interleukin-8 (IL-8) Caco-2/TC7 cells have previously been incubated (24 h) with interleukin-1β and then stimulated for further 24 h with the different preparations. The synthesis of pro-inflammatory IL-8 has been determined by ELISA assay (Bender MedSystems). The quantification has been carried out using a standard curve according to .kit instructions
Interleukin-8 (IL-8) is a member of C—X—C chemokine family and plays a fundamental role in activation of neutrophil cells, thus initiating the inflammatory response. When Caco-2/TC7 cells are subjected to a treatment with inteleukin-1β (2 ng/ml) has been observed a meaningful increment (P<0.001) of IL-8 synthesis (FIG. 7).

Caco-2/TC7 cells [3] = experiment: Nitric oxide (NO) release, Griess reagent; conditions: pre-treated 24 h at 10 μM (soya milk: equol 10 μM), then IFN-γ 1000 U/ml + LPS 100 ng/ml for 24 h
Method: The cells have been pre-treated for 24 h with chemical compounds (10 μM) used as standards (equol, daidzein, genistein and glycitein) and soya milk, obtained from biological soya flour, not fermented or fermented using mixed selected starter, diluted at equol final concentration of 10 μM and sterile filtered. Successively, the cells have been stimulated with γ-interpheron (IFN-γ) (1000 U/ml) and lipopolysaccharide (LPS) (100 ng/ml) for 24 h. DMEM culture medium containing DMSO (1%, v/v) or methanol (0.5%, v/v) has been used as negative control. Data are the average of three triplicate experiments. Asterisk indicates meaningful differences (P<0.01) compared to negative control.
The nitric oxide release (NO) from Caco-2/TC7 cells has been determined by measuring the oxidation products, i.e. nitrite and nitrate. After incubation with the different preparations, the supernatant of cell cultures has been mixed with an equal volume of Griess reagent (1%, p/v, sulfanilic acid in 0.5 M HCl and 0.1%, p/v, N-1-naphthylethylendiamine hydrochloride). After 30 min of incubation at room temp., the absorbance at 540 nm has been measured Nitrite concentration has been determined with reference to standard curve prepared with sodium nitrite.
Preliminarily, Caco-2/TC7 cells have been treated for 24 h at concentration of 10 μM with the OFS fermented soya milk and diluted at equol final concentration of 10 μM or with not fermented soya milk. […] Successively, Caco-2/TC7 cells have been stimulated with INF-γ (1000 U/ml) e LPS (100 ng/ml) per 24 h.

Caco-2/TC7 cells [4] = experiment: Neutral Red uptake cytotoxicity assay; conditions: standard chemical compounds 5-100 μM; vs methanol and DMSO negative control
Method: Human origin Caco-2 cells (clone TC7) have been cultured in Dulbecco (DMEM) medium, added with bovine foetal serum (10%), not essential amino acids (1%), gentamycin/streptomycin (50 μg/ml), glutamine (2 mM) and 4-2-hydroxyethyl-1-piperazinyl-ethanesulfonic acid (1%) (Di Cagno et al., 2010. Quorum sensing in sourdough Lactobacillus plantarum DC400: induction of plantaricin A (PlnA) under co-cultivation with other lactic acid bacteria and effect of PlnA on bacterial and Caco-2 cells. Proteomics in press). The cells viability has been determined by uptake assay of Neutral Red dye (Balls et al., 1987. Approaches to validation alternative methods in toxicology. In: Goldber A. M. (Ed). N.Y. Academic Press pp. 45-58). After treatment for 24-72 h with the different preparations, the cells have been washed with PBS buffer and incubated for 4 h at 37° C. with Neutral Red solution (33 mg/l). […] Plate reading has been carried out using Novapath reader (Biorad, Hercules, Calif.) (Di Cagno et al., 2010).
With the purpose to test immunomodulating properties of isoflavones-aglicones contained in soya milk produced from biological soya flour (OFS), cytotoxicity against Caco-2/TC7 cells by standard chemical compounds (equol, daidzein, genistein and glycitein) at concentrations of 5-100 μM using Neutral Red (NR) uptake assay, firstly has been evaluated.

SMILES | TEER of cells stimulated with IFN-γ (Caco-2/TC7 cells [1]) | IL-8 synthesis [2] | NO release after IFN-γ and LPS stimulation (Caco-2/TC7 cells [3]) | effects on TEER without IFN-γ (Caco-2/TC7 cells [1]; equol at 100 μM, 72 h of incubation) | cell proliferation (Neutral Red uptake) (Caco-2/TC7 cells [4])
O=c1c(-c2ccc(O)cc2)coc2cc(O)ccc12 [daidzein] | has not interfered with the negative effect caused by INF-γ | meaningful decrement | significantly increased |  | 
Oc1ccc([C@H]2COc3cc(O)ccc3C2)cc1 [equol] | trend similar to fermented OFS soya milk | meaningful decrement | inhibited in a marked manner | exception | 
COc1cc2c(=O)c(-c3ccc(O)cc3)coc2cc1O [glycitein] | trend similar to fermented OFS soya milk | did not resulted in (P<0.10) a decrement | considerable inhibition |  | 
O=c1c(-c2ccc(O)cc2)coc2cc(O)cc(O)c12 [genistein] | trend similar to fermented OFS soya milk | did not resulted in (P<0.10) a decrement | considerable inhibition |  | did not affect significantly cell proliferation
